Our source for the IC50 and melting point values is US6972299B2, “Phenylethynyl and styryl derivatives of imidazole and fused ring heterocycles” (Hoffmann-La Roche Inc., priority 2000, dated 2005).

T1 sequence (P31424 21-1171 isoform P31424-2 limits assumed): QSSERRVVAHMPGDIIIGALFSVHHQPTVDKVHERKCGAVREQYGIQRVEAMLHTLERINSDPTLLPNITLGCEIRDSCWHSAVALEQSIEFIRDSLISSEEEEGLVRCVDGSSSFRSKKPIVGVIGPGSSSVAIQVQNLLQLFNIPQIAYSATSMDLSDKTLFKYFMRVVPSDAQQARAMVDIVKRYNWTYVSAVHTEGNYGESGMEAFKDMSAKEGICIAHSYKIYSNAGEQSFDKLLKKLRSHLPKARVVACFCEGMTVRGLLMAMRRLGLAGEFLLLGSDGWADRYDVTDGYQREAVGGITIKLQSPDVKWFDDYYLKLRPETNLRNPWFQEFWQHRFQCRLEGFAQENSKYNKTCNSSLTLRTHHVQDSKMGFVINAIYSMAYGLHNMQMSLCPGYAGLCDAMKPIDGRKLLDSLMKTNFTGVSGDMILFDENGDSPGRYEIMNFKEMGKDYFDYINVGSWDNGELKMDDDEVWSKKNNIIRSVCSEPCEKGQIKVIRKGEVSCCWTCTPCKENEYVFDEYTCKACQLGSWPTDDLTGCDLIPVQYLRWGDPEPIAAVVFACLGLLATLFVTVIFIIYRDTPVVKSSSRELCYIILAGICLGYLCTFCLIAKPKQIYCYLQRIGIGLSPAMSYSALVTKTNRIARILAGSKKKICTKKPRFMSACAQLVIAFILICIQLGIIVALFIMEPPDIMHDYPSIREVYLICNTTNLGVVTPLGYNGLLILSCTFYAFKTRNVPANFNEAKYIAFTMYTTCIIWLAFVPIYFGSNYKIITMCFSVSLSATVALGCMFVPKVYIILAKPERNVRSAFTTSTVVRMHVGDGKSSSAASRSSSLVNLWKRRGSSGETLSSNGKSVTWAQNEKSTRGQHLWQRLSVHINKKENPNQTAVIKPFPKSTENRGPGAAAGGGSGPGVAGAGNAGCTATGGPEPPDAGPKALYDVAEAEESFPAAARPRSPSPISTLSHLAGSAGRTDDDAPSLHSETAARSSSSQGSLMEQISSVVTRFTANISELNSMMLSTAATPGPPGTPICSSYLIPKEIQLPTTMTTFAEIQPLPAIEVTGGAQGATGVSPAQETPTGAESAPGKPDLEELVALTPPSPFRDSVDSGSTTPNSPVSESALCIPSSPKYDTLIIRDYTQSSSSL

The first data set has as its target T1, rat mGlu 5a receptor (Rattus norvegicus, UniProt P31424).
T1 construct: expressed in transfected cells; host or cells: EBNA cells (transient transfection)
The experiment in a line: [Ca2+]i measurement (FLIPR) on mGlu 5a transfected EBNA cells, antagonist mode. The settings on record: rat mGlu 5a transiently transfected EBNA cells, Fluo 3-AM, tested against 10 μM glutamate as agonist. Format: cell-based. As for the experimental part: The pharmacological activity of all of the example compounds was tested using the following method: • cDNA encoding rat mGlu 5a receptor was transiently transfected into EBNA cells using a procedure described by E.-J. Schlaeger and K. Christensen (Transient gene expression in mammalian cells grown in serum-free suspension culture; Cytotechnology, 30: 71-83,1999). [Ca^2+]i measurements were performed on mGlu 5a transfected EBNA cells after incubation of the cells with Fluo 3-AM (obtainable by FLUKA, 0.5 μM final concentration) for 1 hour at 37° C. followed by 4 washes with assay buffer (DMEM supplemented with Hank's salt and 20 mM HEPES. [Ca^2+]i measurements were done using a fluorometric imaging plate reader (FLIPR, Molecular Devices Corporation, La Jolla, Calif., USA). When compounds were evaluated as antagonists they were tested against 10 μM glutamate as agonist.
The inhibition (antagonists) curves were fitted with a four parameter logistic equation giving IC50, and Hill coefficient using the iterative non linear curve fitting software Origin (Microcal Software Inc., Northampton, Mass., USA).
Compound `CCOC(=O)c1c(C)nc(C#Cc2ccc(N)cc2)n1C` [Example 19, 2-(4-Amino-phenylethynyl)-3,5-dimethyl-3H-imidazole-4-carboxylic acid ethyl ester] came in with an IC50 of 1530 nM. The same measure, in the same setting: the same measure for `Cn1cnc(C#Cc2ccccc2)c1C=O` [Example 27, 3-Methyl-5-phenylethynyl-3H-imidazole-4-carbaldehyde]: 1790 nM; for `CCOC(=O)c1c(C)nc(C#Cc2ccccc2)n1C` [Example 1, 3,5-Dimethyl-2-phenylethynyl-3H-imidazole-4-carboxylic acid ethyl ester]: 250 nM. Same read-out and setting: the same measure for `COc1ccc(C=Cc2nc(C(C)C)c(C(C)C)n2C)cc1` [Example 37, 4,5-diisopropyl-2-[2-(4-methoxy-phenyl)-vinyl]-1-methyl-1H-imidazole]: 5000 to 10000 nM; for `C(#Cc1ncn2c1CSc1ncccc1-2)c1ccccc1` [Example 24, 3-Phenylethynyl-4H-5-thia-2,6,9b-triaza-cyclopenta[a]naphthalene]: 150 nM; for `Cn1cnc(Br)c1C=Cc1ccccc1` [Example 43, 4-Bromo-1-methyl-5-styryl-1H-imidazole]: 3060 nM. Turning to `Cc1cc(C#Cc2ccccc2)n(C)n1` [Example 31, 1,3-Dimethyl-5-phenylethynyl-1H-pyrazole], the IC50 lay in the range of 5000 to 10000 nM. Compound `Cn1ccnc1C#Cc1ccccc1F` [Example 18, 2-(2-Fluoro-phenylethynyl)-1-methyl-1H-imidazole] gave an IC50 of 70 nM.

With `Cc1ccc(C=Cc2nc(C(C)C)c(C(C)C)n2C)cc1` [Example 42, 4,5-Diisopropyl-1-methyl-2-(2-p-tolyl-vinyl)-1H-imidazole], the IC50 turned out to be 3250 nM. `CCOC(=O)c1c(C)nc(C#Cc2cccc(NC(C)=O)c2)n1C` [Example 10, 2-(3-Acetylamino-phenylethynyl)-3,5-dimethyl-3H-imidazole-4-carboxylic acid ethyl ester] had an IC50 of 2120 nM. Regarding `O=[N+]([O-])c1cnc(C#Cc2ccccc2)n1CCO` [Example 5, 2-(5-Nitro-2-phenylethynyl-imidazol-1-yl)-ethanol], the IC50 came to 2110 nM. In the case of `CCOC(=O)c1[nH]c(C#Cc2ccccc2)nc1C` [Example 2, 5-Methyl-2-phenylethynyl-3H-imidazole-4-carboxylic acid ethyl ester], the IC50 was 2400 nM. Take `CCOC(=O)c1c(C)nc(C#Cc2ccc(F)cc2)n1C` [Example 15, 2-(4-Fluoro-phenylethynyl)-3,5-dimethyl-3H-imidazole-4-carboxylic acid ethyl ester]: the IC50 is 250 nM. Compared with the last compound, the IC50 is about 9.6-fold lower.

`CCOC(=O)c1nc(C#Cc2ccccc2)n(-c2ccccc2)c1C` [Example 8, 5-Methyl-1-phenyl-2-phenylethynyl-1H-imidazole-4-carboxylic acid ethyl ester] showed an IC50 below 10000 nM. With `COc1cc(C)c(C=Cc2nc(C(C)C)c(C(C)C)n2C)c(C)c1C` [Example 36, 4,5-Diisopropyl-2-[2-(4-methoxy-2,3,6-trimethyl-phenyl)-vinyl]-1-methyl-1H-imidazole], the IC50 was 5000 to 10000 nM. As for `CC(C)c1nc(C=Cc2ccccc2)n(C)c1C(C)C` [Example 32, 4,5-Diisopropyl-1-methyl-2-styryl-1H-imidazole], the IC50 amounted to 1820 nM. In other words, the single-digit micromolar range.

`CC(C)c1nc(C=Cc2ccc(F)cc2)n(C)c1C(C)C` [Example 33, 2-[2-(4-Fluoro-phenyl)-vinyl]-4,5-diisopropyl-1-methyl-1H-imidazole] had an IC50 of 5000 to 10000 nM. Compound `CCOC(=O)c1c(C)nc(C#Cc2cccc(OC)c2)n1C` [Example 3, 2-(3-Methoxy-phenylethynyl)-3,5-dimethyl-3H-imidazole-4-carboxylic acid ethyl ester] displayed an IC50 of 350 nM. This counts as sub-micromolar.

As to `CCOC(=O)c1c(C)nc(C#Cc2cccc(C)c2)n1C` [Example 9, 3,5-dimethyl-2-m-tolylethynyl-3H-imidazole-4-carboxylic acid ethyl ester], the IC50 came to 130 nM.

As for `Cn1ccnc1C#Cc1ccccc1` [Example 4, 1-Methyl-2-phenylethynyl-1H-imidazole], the IC50 is 720 nM. Against the preceding compound, the IC50 is about 5.5-fold higher. The same measure, in the same setting: the same measure for `C(#Cc1ncc[nH]1)c1ccccc1` [Example 6, 2-Phenylethynyl-1H-imidazole]: 200 nM; for `CCOC(=O)c1c(C)nc(C#Cc2ccc(-c3ccccc3)cc2)n1C` [Example 16, 2-Biphenyl-4-ylethynyl-3,5-dimethyl-3H-imidazole-4-carboxylic acid ethyl ester]: 210 nM.

In the case of `Cc1noc(-c2c(C)nc(C#Cc3ccccc3)n2C)n1` [Example 12, 5-(3,5-Dimethyl-2-phenylethynyl-3H-imidazol-4-yl)-3-methyl-[1,2,4]oxadiazole], the IC50 was 11 nM. `CCOC(=O)c1c(C)nc(C#Cc2cccc(-n3c(C)ccc3C)c2)n1C` [Example 11] displayed a half-inhibitory concentration (IC50) of 180 nM.

Regarding `Cc1nc(C#Cc2ccccc2)c([N+](=O)[O-])n1CC(O)CCl` (stereo not drawn) [Example 26, 1-Chloro-3-(2-methyl-5-nitro-4-phenylethynyl-imidazol-1-yl)-propan-2-ol], the IC50 turned out to be 230 nM. `CCOC(=O)c1c(C)nc(C#Cc2ccc(Cl)cc2)n1C` [Example 14, 2-(4-Chloro-phenylethynyl)-3,5-dimethyl-3H-imidazole-4-carboxylic acid ethyl ester] registered an IC50 below 10000 nM.

In turn, `Cn1cnc(C#Cc2ccccc2)c1` [Example 29, 1-Methyl-4-phenylethynyl-1H-imidazole] showed an IC50 of 500 nM. With `CCOC(=O)c1c(C)nc(C#Cc2ccccc2F)n1C` [Example 17, 2-(2-Fluoro-phenylethynyl)-3,5-dimethyl-3H-imidazole-4-carboxylic acid ethyl ester], the IC50 amounted to 90 nM. Compared with the last compound, the IC50 is about 5.6-fold lower.

Turning to `Cc1nc(C#Cc2ccccc2)c([N+](=O)[O-])n1C` [Example 30, 1,2-Dimethyl-5-nitro-4-phenylethynyl-1H-imidazole], the IC50 turned out to be 20 nM. Regarding `C(#Cc1c[nH]cn1)c1ccccc1` [Example 28, 4-Phenylethynyl-1H-imidazole], the IC50 came to 3360 nM. Against the preceding compound, the IC50 is about 170-fold higher. Still for that read-out and setting: the same measure for `COc1ccc2[nH]c(C#Cc3ccccc3)c(CCNC(C)=O)c2c1` [Example 23, N-[2-(5-Methoxy-2-phenylethynyl-1H-indol-3-yl)-ethyl]-acetamide]: 580 nM. `Cn1cncc1C=Cc1ccccc1` [Example 44, 1-Methyl-5-styryl-1H-imidazole] displayed an IC50 of 8000 nM. For `CC(C)c1nc(C=Cc2ccc(Cl)cc2)n(C)c1C(C)C` [Example 34, 2-[2-(4-Chloro-phenyl)-vinyl]-4,5-diisopropyl-1-methyl-1H-imidazole], the IC50 was 5000 to 10000 nM.

With `Cn1ccnc1C#Cc1ccccc1Cl` [Example 20, 2-(2-Chloro-phenylethynyl)-1-methyl-1H-imidazole], the IC50 stood at 1100 nM. Still for that read-out and setting: with `Cn1cncc1C#Cc1ccccc1` [Example 22, 1-Methyl-5-phenylethynyl-1H-imidazole] the figure was 220 nM; with `CCCCOc1ccc(C=Cc2nc(C(C)C)c(C(C)C)n2C)cc1` [Example 35, 2-[2-(4-Butoxy-phenyl)-vinyl]-4,5-diisopropyl-1-methyl-1H-imidazole], 5000 to 10000 nM; with `CCOC(=O)Cn1c(C#Cc2ccccc2)nc(Cl)c1Cl` [Example 21, (4,5-Dichloro-2-phenylethynyl-imidazol-1-yl)-acetic acid ethyl ester], 520 nM.

System in the next data set: not given
Assay: not given
Conditions: not given
As to `Cc1noc(-c2c(C)nc(C#Cc3ccccc3)n2C)n1` [Example 12, 5-(3,5-Dimethyl-2-phenylethynyl-3H-imidazol-4-yl)-3-methyl-[1,2,4]oxadiazole], the melting point was determined as 137 °C. On the same count and under the same terms, with `Cc1nc(C#Cc2ccccc2)n(C)c1-c1nc(C2CC2)no1` [Example 13, 3-Cyclopropyl-5-(3,5-dimethyl-2-phenylethynyl-3H-imidazol-4-yl)-[1,2,4]oxadiazole] the figure was 120 °C.
